Experiments:
Type in all cases: in vivo
Parameters in all cases: key: compounds were considered to be active when, at a concentration of 500 ppm or less, they had an activity on the harmful organisms of 50% or more
[1] = test system: Diabrotica undecimpunctata; assay: Example C: corn rootworm eggs with maize corn, mortality; settings: 500 ppm or less; 4-5-day-old eggs; after 6 days
Spodoptera littoralis = assay: Example G: treated L2 larvae and insect diet, Egyptian cotton leafworm mortality; settings: 500 ppm or less, after 6 days
Plutella maculipennis = assay: Example K: sprayed white cabbage leaf, diamondback moth larvae mortality; settings: 500 ppm or less, after 3 days
Method: A white cabbage leaf was sprayed with an aqueous solution of the formulated compound to be examined. After the spray coating had dried, the treated leaf was populated with larvae of the diamondback moth (Plutella maculipennis). After 3 days of storage at about 23° C., the effect of the compound on the larvae was determined (mortality). The compounds of the following examples were active: 60, 70, 1002, 1004, 1005, 1036, 197.

[2] = test system: Leptinotarsa decemlineata; assay: Example L: potato leaves and larvae sprayed, Colorado beetle mortality; settings: 500 ppm or less, after 4 days
Method: Potato leaves were populated with larvae of the Colorado beetle (Leptinotarsa decemlineata). Leaves and larvae were then sprayed with an aqueous solution of the formulated compound to be examined. After 4 days of storage at about 25° C., the effect of the compound on the larvae was determined (mortality). The compounds of the following examples were active: 60, 70, 1002, 1004, 1005, 1036, 1047, 197.

Heliothis virescens = assay: Example V: dipped freeze-dried diet cube, tobacco budworm L2 larvae mortality; settings: 500 ppm or less, after 4 days
Method: Insect diet (as freeze-dried cube) was dipped into an aqueous solution of the formulated compound to be examined and then placed into a Petri dish. 10 L2 larvae of the American tobacco budworm (Heliothis virescens) were then added. The Petri dish was then closed with a lid. After 4 days of storage at about 23° C., the mortality among the larvae was determined. The following examples were active: 1036, 60.

Spodoptera exigua = assay: Example Z: cotton leaves with larvae sprayed, sugar beet armyworm mortality; settings: 500 ppm or less; cotton leaves populated then sprayed; L2 larvae; after 4 days
Method: Cotton leaves were populated with 5 L2 larvae of the sugar beet armyworm (Spodoptera exigua) and then sprayed with an aqueous solution of the formulated compound to be examined. After 4 days of storage at about 23° C., the mortality among the larvae was determined. The following examples were active: 1036, 70, 60, 1047, 197.

[3] = test system: Leptinotarsa decemlineata; assay: Example AI: sprayed potato plant, repellent effect on Colorado beetle larvae; settings: 500 ppm or less; sprayed plant with untreated plant in a cage; after 1 and 3 days
Excerpt: A potato plant was sprayed with an aqueous solution of the formulated compound to be examined and, together with an untreated plant, placed in a cage. The cage was populated with 100 larvae of the Colorado beetle (Leptinotarsa decemlineata). […] The following examples were active: 1036, 70, 60.

CC1CCN(CC#Cc2cc(C(F)(F)F)cc(C(F)(F)F)n2)CC1 [Example 60]
active: effect on the eggs and hatched larvae (mortality) [1] | effect on the larvae (mortality) (Spodoptera littoralis) | effect on the larvae (mortality) (Plutella maculipennis) | effect on the larvae (mortality) [2] | mortality among the larvae (Heliothis virescens) | mortality among the larvae (Spodoptera exigua) | repellent effect on the larvae [3]

Source: patent publication US7084158B2, “Substituted propargylamines” (Bayer Cropscience S.A., priority 2001, dated 2006)
